Data reported in patent publication US20250064886A1, “CARDIOVASCULAR AND CEREBROVASCULAR DRUG AND USE THEREOF” (HANGZHOU ADAMERCK PHARMLABS INC., priority 2021, published 2025).
Marks after values point to notes of the source that are not given here.

Tests used:
[1] = system: rats with focal cerebral ischemia (MCAO)/reperfusion; test: Preventative administration, cerebral ischemia-reperfusion injury MCAO/R in rats (Example 5); format: in vivo, rat; settings: preventative; for Cerebral infarction rate (%): tail vein 3 days
Description: Experimental method: SD rats were randomly divided into six groups, i.e., pseudosurgery group, model control group, positive control drug ozagre (6 mg/kg) group, and administration drug compound (1) high-dose (67.5 mg/kg) group, medium-dose (22.5 mg/kg) group, and low-dose (7.5 mg/kg) group. The administration group was pre-administered via tail vein injection, while the pseudosurgery group and model control group were given equal volumes of physiological saline once a day for 3 consecutive days. 10 minutes after the last administration, a rat MCAO/R model was established and performed reperfusion 2 hours post ischemia. 24 hours after MCAO reperfusion, the neurobehavioral scores of rats were performed to determine their neurological function; the cerebral infarction rate and cerebral water content in rats were determined using 2,3,5-triphenyltetrazolium chloride (TTC) staining method.

[2] = system: rats with focal cerebral ischemia (MCAO)/reperfusion; test: Therapeutic administration, cerebral ischemia-reperfusion injury MCAO/R in rats (Example 7); format: in vivo, rat
Description: Experimental method: SD rats were randomly divided into 11 groups, including pseudosurgery group, a model control group, positive control drug edaravone via intravenous injection (6 mg/kg, i.v.) group, positive control drug butylphthalide injection via intravenous injection (5 mg/kg, i.v.) group, compound (1) high-dose (24 mg/kg, i.v.), medium-dose (12 mg/kg, i.v.), low-dose (6 mg/kg, i.v.) via intravenous injection group, positive drug butylphthalide soft capsule via intragastric administration (60 mg/kg, i.g.) group, and compound via intragastric administration at (1) high-dose (60 mg/kg, i.g.), medium-dose (30 mg/kg, i.g.), low-dose (15 mg/kg, i.g.) group. A middle cerebral artery occlusion (MCAO) model for cerebral ischemia-reperfusion of male rats was prepared using the internal carotid suture-occluded method with an ischemic time of 90 min followed by reperfusion. Injection and oral administration for once were performed 1 h after reperfusion, and neurobehavioral scoring was performed on rats after 24 h to determine neurological function in rats; the cerebral infarction rate and cerebral water content of rats were determined by 2,3,5-triphenyltetrazolium chloride (TTC) staining.

[3] = system: iron content in Erastin-induced neuronal cells; test: Iron content (PGSK probe) in Erastin-induced neuronal cells (Example 8); format: cell-based, rat; settings: Erastin 50 μM
Description: Experimental method: Primary neuron cells were incubated in a medium containing Erastin (final concentration of 50 μM) for 24 hours, and then incubated in a medium containing different concentrations of the test drug and Erastin (final concentration of 50 μM) for another 24 hours. After incubation, Real time PCR was used to detect mRNA expression of GPX4 in each group of cells, CCK8 assay was used to detect cell viability in each group of cells, C11-BODIPY probe method was used to detect intracellular lipid ROS levels in each group of cells, and PGSK probe method was used to detect iron content in cells.
The experimental data were expressed in means±SD, and statistical differences between groups were determined using one-way ANOVA and Tukey's test, with p-values less than 0.05 considered significant.
After incubation, the PGSK probe method was used to detect the intracellular iron content. The results were presented as Mean±SD. Compared with the control group, ***p<0.0001; Compared with the model group, #p<0.05, ##p<0.01.

[4] = system: vascular inflammation in high-glucose and high-fat zebrafish; test: Regressive effect on vascular inflammation in high-glucose and high-fat zebrafish (Example 9); format: in vivo
Description: Experimental method: 360 tails of 5 dpf macrophage fluorescent zebrafish were randomly selected and placed in beakers with 30 tails in each beaker, compound (1), compound (3), and compound (5) were given intravenously, and the positive control group was given atorvastatin calcium by dissolving it in water at a concentration of 30 μg/mL, while the normal control group (fish farming water-treated zebrafish) and the model control group were set up, and the volume of each beaker (experimental group) was 25 mL. Except for the normal control group, all other groups were given high-lipids and high-sucrose feed by dissolving it in water. Compound (1), compound (3) and compound (5) group were co-treated with high-lipids and high-sucrose feed for 30 h. The treatment was carried out up to 9 dpf, and 10 zebrafish were randomly selected from each experimental group to collect the intensity of the macrophage fluorescence within the tail vein and around the tail vein of the zebrafish under fluorescence microscope, and the results of the statistical analysis were used to evaluate the regressive effect of compound (1), compound (3), compound (5) on zebrafish vascular inflammation in the high sugar and high fat model.

## CC(=O)N[C@H](CSCC1OC2OC3C(CSC[C@@H](NC(C)=O)C(=O)[O-])OC(OC4C(CSC[C@@H](NC(C)=O)C(=O)[O-])OC(OC5C(CSC[C@@H](NC(C)=O)C(=O)[O-])OC(OC6C(CSC[C@@H](NC(C)=O)C(=O)[O-])OC(OC7C(CSC[C@@H](NC(C)=O)C(=O)[O-])OC(OC8C(CSC[C@@H](NC(C)=O)C(=O)[O-])OC(OC9C(CSC[C@@H](NC(C)=O)C(=O)[O-])OC(OC1C(O)C2O)C(O)C9O)C(O)C8O)C(O)C7O)C(O)C6O)C(O)C5O)C(O)C4O)C(O)C3O)C(=O)[O-].[Na+].[Na+].[Na+].[Na+].[Na+].[Na+].[Na+].[Na+] (stereo partly drawn) [Compound (1)]
[1]; 7.5 mg/kg (low-dose)
  Cerebral infarction rate (%): 15.18 ± 4.74 %
[1]; 7.5 mg/kg
  Behavioral score: 2.00 ± 1.07
  Cerebral water content (%): 80.16 ± 1.03%
[1]; 22.5 mg/kg (medium-dose)
  Cerebral infarction rate (%): 13.93 ± 6.99 %
[1]; 22.5 mg/kg
  Behavioral score: 1.87 ± 0.64
  Cerebral water content (%): 79.01 ± 1.27 %
[1]; 67.5 mg/kg (high-dose)
  Cerebral infarction rate (%): 12.28 ± 10.29 %
[1]; 67.5 mg/kg
  Behavioral score: 1.50 ± 0.53
  Cerebral water content (%): 78.23 ± 1.84 %
[2]; 6 mg/kg i.v. low-dose
  Behavioral score: 2.13 ± 0.35
  Cerebral infarction rate (%): 30.03 ± 7.79%
  Cerebral water content (%): 82.30 ± 1.04 %
[2]; 12 mg/kg i.v. medium-dose
  Behavioral score: 1.88 ± 0.35
  Cerebral infarction rate (%): 16.94 ± 9.52 %
  Cerebral water content (%): 80.74 ± 0.89 %
[2]; 15 mg/kg i.g. low-dose
  Behavioral score: 2.25 ± 0.71
  Cerebral infarction rate (%): 29.49 ± 5.93%
  Cerebral water content (%): 82.24 ± 1.49%
[2]; 24 mg/kg i.v. high-dose
  Behavioral score: 1.62 ± 0.52
  Cerebral water content (%): 79.95 ± 1.16 %
[2]; 24 mg/kg i.v. high-dose, 1 h after reperfusion
  Cerebral infarction rate (%): 11.64 ± 9.38 %
[2]; 30 mg/kg i.g. medium-dose
  Behavioral score: 2.00 ± 0.53
  Cerebral infarction rate (%): 21.52 ± 11.04 %
  Cerebral water content (%): 80.61 ± 1.21 %
[2]; 60 mg/kg i.g. high-dose
  Behavioral score: 1.62 ± 0.52
  Cerebral infarction rate (%): 13.61 ± 10.24 %
  Cerebral water content (%): 79.87 ± 1.71 %
[3]; 1 μM, control = 100, PGSK fluorescence, weaker = more iron
  Iron content (PGSK probe): 61.06 ± 7.12
[3]; 2.5 μM
  Iron content (PGSK probe): 66.81 ± 7.21
[3]; 5 μM
  Iron content (PGSK probe): 71.85 ± 4.47
[3]; 10 μM
  Iron content (PGSK probe): 77.52 ± 12.88^#
[3]; 20 μM
  Iron content (PGSK probe): 82.16 ± 6.86^##
[3]; 40 μM
  Iron content (PGSK probe): 86.69 ± 8.01^##
[4]; 222 ng/tail intravenous
  Anti-inflammatory effect (%): 27*** %
  Fluorescence intensity of perivascular macrophage (pixels, Mean ± SE): 134308 ± 6117 pixels
[4]; 667 ng/tail intravenous
  Anti-inflammatory effect (%): 37*** %
  Fluorescence intensity of perivascular macrophage (pixels, Mean ± SE): 116848 ± 5036 pixels
[4]; 2000 ng/tail intravenous
  Anti-inflammatory effect (%): 41*** %
  Fluorescence intensity of perivascular macrophage (pixels, Mean ± SE): 108154 ± 4723 pixels
